Tests used:
Assay in all cases: relative viability (nuclei count vs DMSO), 5 days (fraction); higher = more cells survive
[1] = compound: C1CSC2=C(C(=O)N1)SC3=C2C=C(C=C3)O [kb NB 142-70] + CCNC(=O)c1noc(-c2cc(C(C)C)c(O)cc2O)c1-c1ccc(CN2CCOCC2)cc1 [Luminespib] (partner 0.01 µM)
Outline: (§1)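 The day after seeding in 1536-well plates, lung cancer cell lines were treated by pin tool with a single drug, or with a fixed anchor-drug dose together with five library-drug doses (not always all listed) in √10 steps. After 5 days, a combined fix-and-stain solution (final 0.05% Triton X-100, 1% formaldehyde, 1 ug/ml Hoechst) was added. Nuclei counted on 4× images gave relative viability as treated counts over vehicle counts, reported as the median of duplicate plates.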

[2] = compound: NCC(=O)Nc1ccc(-n2nc(C(F)(F)F)cc2-c2ccc3c(ccc4ccccc43)c2)cc1 + Cc1cc(Nc2cc(N3CCN(C)CC3)nc(Sc3ccc(NC(=O)C4CC4)cc3)n2)n[nH]1 [Tozasertib] (partner 0.1 µM)
Outline: as §1

[3] = compound: NCC(=O)Nc1ccc(-n2nc(C(F)(F)F)cc2-c2ccc3c(ccc4ccccc43)c2)cc1 + COc1cccc2cc(-c3nc([C@H]4CC[C@H](C(=O)O)CC4)n4ncnc(N)c34)[nH]c12 [OSI-027] (partner 0.5 µM)
Outline: as §1

[4] = compound: NCC(=O)Nc1ccc(-n2nc(C(F)(F)F)cc2-c2ccc3c(ccc4ccccc43)c2)cc1 + Cc1nc(NC(=O)N2CCC[C@H]2C(N)=O)sc1-c1ccnc(C(C)(C)C(F)(F)F)c1 [Alpelisib] (partner 2 µM)
Outline: as §1

Cell Line	relative viability ([1]; first compound 0.1 µM)	relative viability ([1]; first compound 1 µM)	relative viability ([1]; first compound 3.162 µM)	relative viability ([2]; first compound 0.02 µM)	relative viability ([2]; first compound 0.06325 µM)	relative viability ([2]; first compound 0.2 µM)	relative viability ([2]; first compound 0.6325 µM)	relative viability ([2]; first compound 2 µM)	relative viability ([3]; first compound 0.02 µM)	relative viability ([3]; first compound 0.06325 µM)	relative viability ([3]; first compound 0.2 µM)	relative viability ([3]; first compound 0.6325 µM)	relative viability ([3]; first compound 2 µM)	relative viability ([4]; first compound 0.02 µM)	relative viability ([4]; first compound 0.06325 µM)	relative viability ([4]; first compound 0.2 µM)	relative viability ([4]; first compound 0.6325 µM)	relative viability ([4]; first compound 2 µM)
NCI-H2170	0.578	0.728	0.521	0.743	0.726	0.779	0.799	0.771	0.67	0.678	0.711	0.824	0.735	0.782	0.716	0.823	0.886	0.88
NCI-H2228	0.176	0.13	0.119	0.217	0.265	0.308	0.27	0.229	0.672	0.535	0.904	0.644	0.584	0.785	0.84	0.669	0.689	0.921
NCI-H2347	0.387	0.431	0.387	0.586	0.71	0.482	0.618	0.73	0.465	0.484	0.606	0.503	0.685	1.04	1.03	1.18	1.15	1.12
NCI-H2405	0.733	0.728	0.523	0.745	0.853	0.779	0.733	0.868	0.634	0.646	0.699	0.642	0.689	0.851	0.826	0.831	0.782	0.923
NCI-H3122	0.0874	0.075	0.0881	0.412	0.431	0.391	0.366	0.236	1.04	0.941	0.899	0.98	0.876	0.852	0.847	0.801	0.823	0.746

— the supplement of paper PMC10307832
